Literature values, collected in patent US12133847B2, “Pharmaceutical composition and preparation method therefor” (Shenzhen Pharmacin Co., Ltd., priority 2014, dated 2024).
Where a name gives a salt, the structure may show the parent alone. Read-outs that look alike come from different tables or passages of the source.

How the values were obtained:
[1] = in vivo

Solubility (in acidic media) | Solubility (in neutral and alkaline media) | Solubility (physiological conditions, in the intestine near pH 7.0) | Oral bioavailability [1] | Compound
high solubility | very poor solubility | substantially insoluble | – | CCCCCCOC(=O)NC(=N)c1ccc(NCc2nc3cc(C(=O)N(CCC(=O)OCC)c4ccccn4)ccc3n2C)cc1 [Dabigatran etexilate mesylate, dabigatran etexilate mesylate]
– | – | – | very low oral bioavailability | [H]/N=C(/N)c1ccc(NCc2nc3cc(C(=O)N(CCC(=O)O)c4ccccn4)ccc3n2C)cc1 [dabigatran]
